Article PMC5538713, “RORγt and RORα signature genes in human Th17 cells” (PLoS ONE, 2017)
Where two headings read alike, the source gives them in different places.

Experiments:
Assay in all cases: Cerep selectivity panel
Type in all cases: binding
[1] = system: Na+ Channel
[2] = system: Ca2+ Channel
Method in brief: (§1)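 Off-target profiling within a commercial panel of 50 receptors, ion channels and transporters; each compound was tested at 1 µM and 10 µM.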

[3] = molecular target: T1, M2 (h) (Homo sapiens, UniProt P08172)
T1 construct: purchased Cerep
T1 sequence (P08172 1-466): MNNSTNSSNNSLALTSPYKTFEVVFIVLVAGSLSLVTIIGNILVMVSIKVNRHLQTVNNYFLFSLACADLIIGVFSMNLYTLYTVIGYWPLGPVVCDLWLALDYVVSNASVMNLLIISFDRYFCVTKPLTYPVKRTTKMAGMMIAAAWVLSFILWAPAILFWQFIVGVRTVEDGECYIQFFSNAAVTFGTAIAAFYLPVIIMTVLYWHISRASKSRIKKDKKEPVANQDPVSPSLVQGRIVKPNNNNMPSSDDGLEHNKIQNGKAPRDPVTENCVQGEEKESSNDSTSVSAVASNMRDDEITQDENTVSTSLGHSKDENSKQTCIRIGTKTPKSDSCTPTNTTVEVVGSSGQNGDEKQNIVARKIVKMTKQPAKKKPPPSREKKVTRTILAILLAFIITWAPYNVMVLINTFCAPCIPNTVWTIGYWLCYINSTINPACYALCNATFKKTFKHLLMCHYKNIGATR
Method in brief: as §1

[4] = system: SST
Method in brief: as §1

[5] = system: SK+ Ca
[6] = system: K Channel
[7] = molecular target: T2, ETA (h) (Homo sapiens, UniProt P25101); conditions: for inhibition at 10 µM: read-out: % Inhibition at 10µM
T2 construct: purchased Cerep
T2 sequence (P25101 21-427): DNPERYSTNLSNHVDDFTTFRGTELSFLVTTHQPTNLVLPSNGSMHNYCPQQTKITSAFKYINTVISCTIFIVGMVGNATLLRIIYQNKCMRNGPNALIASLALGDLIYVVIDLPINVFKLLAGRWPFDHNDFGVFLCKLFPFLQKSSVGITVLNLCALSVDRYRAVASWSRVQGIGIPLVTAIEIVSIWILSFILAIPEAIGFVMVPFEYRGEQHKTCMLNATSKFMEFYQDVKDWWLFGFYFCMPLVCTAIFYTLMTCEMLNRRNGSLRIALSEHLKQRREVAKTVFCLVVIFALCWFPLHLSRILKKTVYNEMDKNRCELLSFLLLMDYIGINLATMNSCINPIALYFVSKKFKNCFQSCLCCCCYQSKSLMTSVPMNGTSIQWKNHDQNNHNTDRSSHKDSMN
Method in brief: as §1

[8] = molecular target: T3, CCR1 (h) (Homo sapiens, UniProt P32246)
T3 construct: purchased Cerep
Method in brief: as §1

[9] = molecular target: T4, M1 (h) (Homo sapiens, UniProt P11229)
T4 construct: purchased Cerep
T4 sequence (P11229 1-460): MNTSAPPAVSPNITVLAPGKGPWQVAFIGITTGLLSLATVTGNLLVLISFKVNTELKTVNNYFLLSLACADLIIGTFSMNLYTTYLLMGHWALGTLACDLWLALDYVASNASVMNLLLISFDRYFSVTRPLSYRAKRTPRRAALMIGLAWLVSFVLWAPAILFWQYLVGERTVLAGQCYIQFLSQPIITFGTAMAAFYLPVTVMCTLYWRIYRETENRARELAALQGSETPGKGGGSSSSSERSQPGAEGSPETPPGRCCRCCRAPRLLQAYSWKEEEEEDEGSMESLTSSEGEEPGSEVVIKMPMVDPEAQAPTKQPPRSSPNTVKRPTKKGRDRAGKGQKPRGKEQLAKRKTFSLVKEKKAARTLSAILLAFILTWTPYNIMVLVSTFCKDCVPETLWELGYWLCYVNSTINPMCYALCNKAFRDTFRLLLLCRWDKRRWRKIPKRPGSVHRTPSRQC
Method in brief: as §1

[10] = molecular target: T5, A1 (h) (Homo sapiens, UniProt P30542); conditions: for inhibition at 1 µM: read-out: % Inhibition at 1µM; for inhibition at 10 µM: read-out: % Inhibition at 10µM
T5 construct: purchased Cerep
T5 sequence (P30542 1-326): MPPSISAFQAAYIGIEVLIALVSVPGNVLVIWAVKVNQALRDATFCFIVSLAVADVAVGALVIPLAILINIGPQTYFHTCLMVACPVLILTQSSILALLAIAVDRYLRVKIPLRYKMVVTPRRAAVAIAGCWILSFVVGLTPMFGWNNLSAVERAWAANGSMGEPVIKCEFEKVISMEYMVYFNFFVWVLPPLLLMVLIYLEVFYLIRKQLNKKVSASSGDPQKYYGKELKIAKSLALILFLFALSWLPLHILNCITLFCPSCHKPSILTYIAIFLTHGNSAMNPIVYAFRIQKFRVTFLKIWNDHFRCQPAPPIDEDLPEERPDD
Method in brief: as §1

[11] = molecular target: T6, VIP 1 (h) (Homo sapiens, UniProt P32241)
T6 construct: purchased Cerep
Method in brief: as §1

[12] = molecular target: T7, ɣ1 (h) (Homo sapiens, UniProt P25929); conditions: for inhibition at 1 µM: read-out: % Inhibition at 1µM
T7 construct: purchased Cerep
T7 sequence (P25929 1-384): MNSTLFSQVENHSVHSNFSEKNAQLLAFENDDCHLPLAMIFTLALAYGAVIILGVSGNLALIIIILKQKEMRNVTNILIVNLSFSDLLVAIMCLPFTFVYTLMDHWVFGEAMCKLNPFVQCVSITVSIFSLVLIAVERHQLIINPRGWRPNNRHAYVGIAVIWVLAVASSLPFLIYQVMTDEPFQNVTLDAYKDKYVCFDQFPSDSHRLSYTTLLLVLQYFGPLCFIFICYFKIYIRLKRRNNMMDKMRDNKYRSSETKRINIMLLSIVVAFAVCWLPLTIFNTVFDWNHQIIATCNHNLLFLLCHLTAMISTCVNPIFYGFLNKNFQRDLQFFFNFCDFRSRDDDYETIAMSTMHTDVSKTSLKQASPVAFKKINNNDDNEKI
Method in brief: as §1

[13] = molecular target: T8, 5HT7 (h) (Homo sapiens, UniProt P34969); conditions: for inhibition at 10 µM: read-out: % Inhibition at 10µM
T8 construct: purchased Cerep
Method in brief: as §1

[14] = molecular target: T9, 5HT1B (Rattus norvegicus, UniProt P28564)
T9 construct: purchased Cerep
Method in brief: as §1

T8 sequence (P34969 whole entry): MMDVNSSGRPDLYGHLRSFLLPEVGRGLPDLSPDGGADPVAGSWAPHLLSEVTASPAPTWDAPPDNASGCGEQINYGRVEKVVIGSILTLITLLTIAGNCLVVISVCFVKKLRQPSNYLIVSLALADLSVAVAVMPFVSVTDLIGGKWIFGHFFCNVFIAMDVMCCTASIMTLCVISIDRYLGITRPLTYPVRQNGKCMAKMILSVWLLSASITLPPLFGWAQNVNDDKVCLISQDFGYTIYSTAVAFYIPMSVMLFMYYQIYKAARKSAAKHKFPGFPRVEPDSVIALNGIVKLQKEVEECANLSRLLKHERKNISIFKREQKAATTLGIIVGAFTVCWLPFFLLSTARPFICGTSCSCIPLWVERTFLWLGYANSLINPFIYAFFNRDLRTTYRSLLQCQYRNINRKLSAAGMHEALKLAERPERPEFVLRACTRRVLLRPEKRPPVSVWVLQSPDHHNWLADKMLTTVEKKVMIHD
T3 sequence (P32246 whole entry): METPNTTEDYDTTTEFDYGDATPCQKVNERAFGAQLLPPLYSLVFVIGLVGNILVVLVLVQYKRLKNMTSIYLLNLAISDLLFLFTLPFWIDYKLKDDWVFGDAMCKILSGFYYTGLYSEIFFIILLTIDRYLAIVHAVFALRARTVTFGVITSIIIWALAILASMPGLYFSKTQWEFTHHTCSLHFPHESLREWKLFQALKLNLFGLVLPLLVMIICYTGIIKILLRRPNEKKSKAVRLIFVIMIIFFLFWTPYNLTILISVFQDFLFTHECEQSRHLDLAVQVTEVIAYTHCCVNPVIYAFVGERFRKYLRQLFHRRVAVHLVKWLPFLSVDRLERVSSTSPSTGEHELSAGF
T6 sequence (P32241 31-457): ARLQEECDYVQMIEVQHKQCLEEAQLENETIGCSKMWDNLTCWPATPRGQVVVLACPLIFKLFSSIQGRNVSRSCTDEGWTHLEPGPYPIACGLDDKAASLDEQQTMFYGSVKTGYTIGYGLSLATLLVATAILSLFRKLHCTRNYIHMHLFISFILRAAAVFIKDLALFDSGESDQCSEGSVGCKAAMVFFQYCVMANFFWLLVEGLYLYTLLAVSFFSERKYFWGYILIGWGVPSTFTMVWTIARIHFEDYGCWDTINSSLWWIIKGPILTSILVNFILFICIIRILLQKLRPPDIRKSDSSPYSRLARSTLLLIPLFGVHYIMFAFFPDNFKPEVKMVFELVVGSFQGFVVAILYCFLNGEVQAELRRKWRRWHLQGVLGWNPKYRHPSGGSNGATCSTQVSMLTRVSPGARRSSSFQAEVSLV
T9 sequence (P28564 whole entry): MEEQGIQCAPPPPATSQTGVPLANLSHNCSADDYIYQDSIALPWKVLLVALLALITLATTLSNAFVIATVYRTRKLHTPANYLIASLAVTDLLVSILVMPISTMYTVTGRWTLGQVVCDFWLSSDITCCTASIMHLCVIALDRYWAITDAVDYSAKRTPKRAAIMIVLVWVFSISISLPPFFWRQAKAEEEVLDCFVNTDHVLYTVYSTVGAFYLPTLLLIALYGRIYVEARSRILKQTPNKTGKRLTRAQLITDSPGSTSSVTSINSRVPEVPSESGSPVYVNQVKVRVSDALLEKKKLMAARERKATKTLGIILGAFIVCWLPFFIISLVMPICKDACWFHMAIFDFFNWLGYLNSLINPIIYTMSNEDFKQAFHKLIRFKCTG

Structure (SMILES)	% Inhibition at 10µM [1] [%]	% Inhibition at 1µM [2] [%]	% Inhibition at 10µM [2] [%]	inhibition at 1 µM [3] [%]	inhibition at 10 µM [3] [%]	% Inhibition at 10µM [4] [%]	% Inhibition at 10µM [5] [%]	% Inhibition at 10µM [6] [%]	inhibition at 1 µM [9] [%]	inhibition at 10 µM [9] [%]	also measured
COc1nc2ccc([C@](O)(c3ccc(Cl)cc3)c3cncn3C)cc2c(Cl)c1Cc1ccc(-n2cccn2)cc1 [B]	3	3	21	16	23	1					
COc1nc2ccc([C@@](O)(c3ccccc3)C3CCN(C(C)=O)CC3)cc2c(Cl)c1Cc1ccc(-n2cccn2)cc1 [C]							5	17	12	21	% Inhibition at 1µM ([5]; 1 µM): 1%; inhibition at 10 µM [7]: 12%; inhibition at 1 µM ([8]; 1 µM): 17%
COc1nc2ccc([C@@](O)(c3ccc(C)nc3C)c3cnnn3C)cc2c(Cl)c1Cc1ccc(C(F)(F)F)cc1 [compound A]	45	2	32			6	1	9			% Inhibition at 1µM ([1]; 1 µM): 20%; inhibition at 1 µM ([10]; A1 (h), 1 µM): 19%; inhibition at 10 µM ([10]; A1 (h), 10 µM): 30%; inhibition at 1 µM [11]: 3%; inhibition at 1 µM ([7]; ETA (h), 1 µM): 5%; inhibition at 10 µM ([7]; ETA (h), 10 µM): 4%; inhibition at 1 µM ([12]; ɣ1 (h), 1 µM): 5%; inhibition at 10 µM ([12]; ɣ1 (h), 10 µM): 5%; inhibition at 1 µM ([13]; 5HT7 (h), 1 µM): 4%; inhibition at 10 µM ([13]; 5HT7 (h), 10 µM): 4%; inhibition at 10 µM [14]: 1%
CN(C)c1nc2ccc(C(O)(c3ccncc3)c3cncn3C)cc2c(Cl)c1-c1ccccc1 (stereo not drawn) [compound D]				10	47				6	67	inhibition at 1 µM [10]: 18%; inhibition at 10 µM [10]: 50%; inhibition at 1 µM [12]: 16%; inhibition at 10 µM ([8]; 10 µM): 6%; inhibition at 10 µM [13]: 16%
